ChEMBL document CHEMBL5154848, “Synthesis of heterocyclic ring-fused analogs of HMG499 as novel degraders of HMG-CoA reductase that lower cholesterol” (Eur J Med Chem, 2022)

Legend:
[1] = Toxicity in human SV589 cells assessed as cholesterol accumulation in lysosome at 10 uM incubated for 16 hrs by immunofluorescence based confocal microscopy; format: cell-based; conditions: sv-589, 16 h
[2] = Downregulation of HMGCR expression in CHO-K1 cells assessed as fold change in HMGCR expression at 3 uM incubated for 16 hrs by immunoblot analysis (reference value: 1.0); format: functional, Cricetulus griseus
[3] = system: LX-2; test: Downregulation of TGF-beta-1-induced COL1A1 mRNA levels in serum starved human LX2 cells pretreated with TGF-beta-1 for 6 hrs followed by compound treatment for 24 hrs by SYBR green dye based qRT-PCR analysis; format: functional, cell-based; conditions: dose <= 2.0 µM, DDE = dose-dependent effect
[4] = system: LX-2; test: Downregulation of TGF-beta-1-induced cholesterol levels in human LX2 cells starved in serum free medium for 2 hrs followed by stimulation with TGF-beta-1 for 6 hrs and measured 24 hrs after compound treatment by; format: functional, cell-based; conditions: DDE = dose-dependent effect
[5] = system: RAW264.7; test: Downregulation of LPS-stimulated TNF-alpha mRNA levels in mouse RAW264.7 cells pretreated with LPS for 2 hrs followed by compound treatment for 24 hrs by SYBR green dye based qRT-PCR analysis; format: functional, cell-based; conditions: dose <= 2.0 µM, DDE = dose-dependent effect
[6] = system: RAW264.7; test: Downregulation of LPS-stimulated IL-6 mRNA levels in mouse RAW264.7 cells pretreated with LPS for 2 hrs followed by compound treatment for 24 hrs by SYBR green dye based qRT-PCR analysis; format: functional, cell-based; conditions: dose <= 2.0 µM, DDE = dose-dependent effect
[7] = system: RAW264.7; test: Downregulation of LPS-stimulated cholesterol levels in mouse RAW264.7 cells pretreated with LPS for 2 hrs followed by compound treatment for 24 hrs; format: functional, cell-based; conditions: dose <= 2.0 µM, DDE = dose-dependent effect
[8] = system: CHO-K1; test: Downregulation of lovastatin-induced HMGCR expression in CHO-K1 cells incubated for 16 hrs by immunoblot analysis; format: functional, cell-based; conditions: Cricetulus griseus, dose 1-10 µM, DDE = dose-dependent effect
[9] = system: LX-2; test: Antiproliferative activity against human LX2 cells assessed as reduction of TGF-beta1 induced proliferation by CCK-8 assay; format: functional, cell-based; conditions: DDE = dose-dependent effect
[10] = system: LX-2; test: Downregulation of TGF-beta-1-induced alpha-SMA protein level in serum starved human LX2 cells pretreated with TGF-beta-1 for 6 hrs followed by compound treatment for 24 hrs by Western blot analysis; format: functional, cell-based; conditions: DDE = dose-dependent effect
[11] = target: T1, 3-hydroxy-3-methylglutaryl-coenzyme A reductase (Cricetulus griseus, UniProt P00347); test: Induction of degradation of hamster HMGCR (TM1-8)-GFP (1 to 346 residues) transfected in CHO-7 cells incubated for 16 hrs in sterol-depleted medium by fluorescence based microplate reader assay; format: cell-based
T1 sequence (P00347 whole entry): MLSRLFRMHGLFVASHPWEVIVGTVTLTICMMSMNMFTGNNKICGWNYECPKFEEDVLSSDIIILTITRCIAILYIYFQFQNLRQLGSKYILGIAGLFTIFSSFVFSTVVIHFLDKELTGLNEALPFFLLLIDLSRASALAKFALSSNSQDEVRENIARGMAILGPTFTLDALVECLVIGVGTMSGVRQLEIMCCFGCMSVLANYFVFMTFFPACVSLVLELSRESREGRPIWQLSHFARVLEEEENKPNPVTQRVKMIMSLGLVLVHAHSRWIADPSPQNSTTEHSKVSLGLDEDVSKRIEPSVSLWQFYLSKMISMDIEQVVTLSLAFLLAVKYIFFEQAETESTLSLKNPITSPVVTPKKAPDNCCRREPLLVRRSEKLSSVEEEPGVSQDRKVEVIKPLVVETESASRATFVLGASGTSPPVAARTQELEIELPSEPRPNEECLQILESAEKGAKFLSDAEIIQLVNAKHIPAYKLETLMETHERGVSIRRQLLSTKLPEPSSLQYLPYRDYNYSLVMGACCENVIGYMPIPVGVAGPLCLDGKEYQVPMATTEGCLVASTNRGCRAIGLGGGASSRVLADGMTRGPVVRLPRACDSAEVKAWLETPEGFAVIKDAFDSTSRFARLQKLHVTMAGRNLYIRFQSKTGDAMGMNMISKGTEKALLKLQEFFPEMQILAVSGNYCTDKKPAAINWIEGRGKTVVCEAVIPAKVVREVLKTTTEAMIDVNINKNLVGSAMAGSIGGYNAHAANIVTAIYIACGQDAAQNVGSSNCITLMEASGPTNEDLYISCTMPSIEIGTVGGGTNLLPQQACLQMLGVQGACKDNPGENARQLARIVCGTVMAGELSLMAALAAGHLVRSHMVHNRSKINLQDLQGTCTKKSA

[12] = target: T2, 3-hydroxy-3-methylglutaryl-coenzyme A reductase (Homo sapiens) (UniProt P04035); test: Induction of HMGCR-T7 (unknown origin) degradation transfected in CHO-K1 cells assessed as HMGCR ubiquitination preincubated in sterol-depleted medium for 16 hrs followed by compound addition and measured after 4 hrs in presence of MG-132 by immuno-precipicitation analysis; format: cell-based; conditions: DDE = dose-dependent effect
T2 sequence (whole entry): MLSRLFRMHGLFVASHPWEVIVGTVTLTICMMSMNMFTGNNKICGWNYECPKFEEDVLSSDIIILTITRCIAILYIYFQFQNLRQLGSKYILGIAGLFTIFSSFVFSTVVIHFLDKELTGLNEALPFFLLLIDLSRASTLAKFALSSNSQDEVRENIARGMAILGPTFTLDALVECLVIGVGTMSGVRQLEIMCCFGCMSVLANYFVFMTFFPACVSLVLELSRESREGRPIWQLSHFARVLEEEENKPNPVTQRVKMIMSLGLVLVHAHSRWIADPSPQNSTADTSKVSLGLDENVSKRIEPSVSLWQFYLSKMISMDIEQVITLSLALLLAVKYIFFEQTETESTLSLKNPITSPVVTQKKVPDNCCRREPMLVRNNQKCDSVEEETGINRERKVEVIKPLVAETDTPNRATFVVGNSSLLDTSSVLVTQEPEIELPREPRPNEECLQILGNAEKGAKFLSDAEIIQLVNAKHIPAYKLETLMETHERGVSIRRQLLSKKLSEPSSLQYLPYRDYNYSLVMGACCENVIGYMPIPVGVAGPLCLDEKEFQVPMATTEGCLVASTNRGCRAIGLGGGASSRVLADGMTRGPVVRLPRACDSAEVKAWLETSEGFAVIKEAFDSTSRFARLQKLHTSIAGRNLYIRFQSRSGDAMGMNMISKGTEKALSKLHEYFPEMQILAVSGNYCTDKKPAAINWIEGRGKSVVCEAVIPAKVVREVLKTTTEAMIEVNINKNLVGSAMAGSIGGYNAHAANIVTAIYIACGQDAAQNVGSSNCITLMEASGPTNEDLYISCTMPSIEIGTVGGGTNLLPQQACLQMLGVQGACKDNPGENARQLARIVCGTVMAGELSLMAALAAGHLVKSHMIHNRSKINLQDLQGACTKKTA

[13] = system: RAW264.7; test: Downregulation of LPS-stimulated IL-1-beta mRNA levels in mouse RAW264.7 cells pretreated with LPS for 2 hrs followed by compound treatment for 24 hrs by SYBR green dye based qRT-PCR analysis; format: functional, cell-based; conditions: dose <= 2.0 µM, DDE = dose-dependent effect
[14] = Downregulation of lovastatin-induced HMGCR expression in CHO-K1 cells assessed as fold change in HMGCR expression at 10 uM incubated for 16 hrs by immunoblot analysis (reference value: 15.2); format: functional, Cricetulus griseus

For `CC(=O)n1ncc2c1C(C)(C)C1=CC[C@H]3[C@@H]4CC[C@H]([C@H](C)CCC(=O)N5CCOCC5)[C@@]4(C)CC[C@@H]3[C@@]1(C)C2`, the Activity [1] was “Non-Toxic”, the “fold change (FC)” value [2] was 0.1 and the Activity [3] was “Dde”. For the same compound, the Activity [4] was “Dde”, the Activity [5] was “Dde” and the Activity [6] was “Dde”. The Activity [7] was “Dde”, the Activity [8] was “Dde” and the Activity [9] was “Dde”. The Activity [10] was “Dde”, the EC50 [11] was 220 nM and the Activity [12] was “Dde”. The Activity [13] was “Dde” and the “fold change (FC)” value [14] was 0.4.
